Where “and” joins values, the source holds several entries; their conditions need not be identical. Equal entries are not always repeated. Entries after “also recorded” stand apart in the source; their conditions may differ. Where two headings read alike, the source gives them in different places.
How the values were obtained:
IL17A [1] = target: T1, IL17A (Homo sapiens, UniProt Q16552); test: Compound binding to IL17A via surface plasmon resonance (SPR); details: for Kd: binding to IL17A
T1 construct: Biotinylated Avi-tag IL17A-(24–155) was produced by enzymatic biotinylation; 6His-MBP (N, cleaved yes); made in house; host or cells: Escherichia coli Shuffle T7 express (NEB)
Description: Compounds were assayed via Surface Plasmon Resonance (SPR) using Biacore T200 instrument and Biacore 4000 [Formerly GE Healthcare (now Cytiva Life Sciences)]. […] Sensorgrams were processed (including solvent correction) and analyzed using Biacore T200 and Biacore 4000 evaluation software. The binding curves were fit to determine the equilibrium dissociation constant (KD) and kinetic constants (kon and koff).
Supplemental Figure 2: Measurement for binding of IL17A inhibitors by Surface Plasmon Resonance (SPR).

[2] = test system: IL17A/TNF stimulated HeLa cells carrying an LCN2 promoter-driven luciferase reporter; test: IL17A/TNF stimulated HeLa-LCN2 luciferase reporter cells; format: cell-based; details: for IC50: Homo sapiens, HeLa LCN2 luciferase reporter, IL17A and TNF, read-out: IL17A/TNF stimulated cell IC50
Description: (§1) The promoter of the IL17 target gene lipocalin 2 (LCN2) inserted into pGL4-luciferase vector (pGL4[luc2P/LCN2/Hygro], obtained from Promega) was used to generate a stable clone in HeLa cells (ATCC) using hygromycin. In response to IL17 stimulation the increase in LCN2-luciferase gene transcription can be monitored using the luciferase reporter assay as described below. The reporter cells (HeLa-LCN2) were cultured in Dulbecco's modified Eagle's medium supplemented with 10% (v/v) fetal bovine serum, 0.2 mg/mL hygromycin, and 1% penicillin and streptomycin. Cells were maintained at 37 °C in a humidified atmosphere of 5% CO2. The assay media contained Dulbecco's modified Eagle's medium supplemented with 0.5% Charcoal-stripped FBS and 1% penicillin and streptomycin. About 7500 cells per well were plated in 40 ul assay media in a 384-well black plate (Grenier, #781,090) for 16 h. Then cells were stimulated with IL17A (10 ng/mL) and TNF (20 ng/mL) for 6 h at 37 °C and 5% CO2. The supernatant was removed and 25 µL of One-Glo reagent (#E6110, Promega) was added to the wells and luminescence was measured using Envision multimode plate reader. Background signal was measured using the same protocol by stimulating cells with TNF (20 ng/mL) in the absence of IL17A. All inhibition experiments were normalized against DMSO control containing no inhibitor. Example raw data are shown in Supplementary Fig. 10B.

IL17A [3] = target: T1, IL17A; test: Fluorescence polarization competition assay with FP probe Cmpd 11; format: binding; details: for Competition for IL17A with FP probe: probe Cmpd 11
Description: Fluorescence polarization (FP) assays were performed in black shallow 384-well micro plates (ProxiPlate – 384 F Plus, PerkinElmer) using Envision multimode plate reader (Perkin-Elmer). Polarization was measured by using an excitation filter of 485 nm and an emission filter of 535 nm. Each well was flashed 50 times, and the average values were used. Briefly, 5 µL of IL17A (20 nM) diluted in the assay buffer (50 mM Tris pH 8.0, 0.001% Tween) was added to compound containing wells and incubated for 60 min. To this, 5 µL of the FP probe (10 nM) was added and the reaction mixture was incubated for 120 min at room temperature prior to measuring FP. All inhibition experiments were normalized against DMSO control containing no inhibitor.

[4] = AlphaLISA TruHits counter screen for false positives; details: AlphaLISA non-specific effects; read-out: TruHits counterscreen IC50
Description: (§2) AlphaLISA technology was used to understand the ability of compounds to inhibit IL17A binding to IL17 receptor (IL17RA). Compounds of interest were diluted in 100% DMSO and plated in a 384 well white proxiplate (Perkin Elmer) using Echo Acoustic Liquid Handler (LabCyte Sunnydale, CA). To the compound plate, 4 µL of biotinylated IL17A (R&D systems) and 2 µL of IL17RA-Fc (R&D Systems) was added, to provide a final concentration of 1 nM of IL17RA-Fc and IL17A, respectively. The assay was carried out in 100 mM Tris, 0.01% Tween-20, 0.1% BSA, pH 8.0. The assay mixture was allowed to incubate at room temperature for 60 min, after which, 2 µL of protein A AlphaLISA acceptor beads (#AL101M, PerkinElmer) was added to a final concentration of 7.5 µg/mL for 60 min. To the plate, 2 µL of streptavidin donor beads (#6,760,002, PerkinElmer) was added to a final concentration of 7.5 µg/mL. The plate was allowed to incubate for one hour at room temperature, then loaded into the Envision multimode plate reader (Perkin Elmer). AlphaLISA TruHits Kits (#AL900D, PerkinElmer) were used to assess potential false positives. All inhibition experiments were normalized against DMSO control containing no inhibitor. Example raw data are shown in Supplementary Fig. 10A.

IL17A-IL17RA-Fc complex = target: T2, IL17A-IL17RA-Fc complex (Homo sapiens, UniProt Q16552); test: IL17A-IL17RA-Fc AlphaLISA assay; format: biochemical
T2 construct: purchased R&D Systems
Description: as §2

[5] = test system: TNF-only stimulated HeLa reporter cells; test: TNF-only stimulated HeLa-LCN2 luciferase reporter cells; format: cell-based; details: Homo sapiens, read-out: TNF-only stimulated cell IC50
Description: as §1

IL17A [6] = target: T3, IL17A (Homo sapiens, UniProt Q16552, C129S); test: 2D NMR titration of compound binding to IL17A
T3 construct: For crystallography, NMR and early SPR studies, IL17A (34–155)C129S; Trx-6His (N, cleaved yes); made in house; host or cells: Escherichia coli Shuffle T7 express (NEB)
Description: NMR spectra were acquired on either a Bruker 500 MHz AVANCE III spectrometer or a Bruker 600 MHz AVANCE III HD spectrometer, both with cryoprobes, on 60 µM protein samples in 20 mM deuterated TRIS buffer, pH 8.0, with 150 mM NaCl. For fragment screening, fragments were added from a concentrated DMSO stock to a concentration of 1 mM in the NMR tube. As described above, fragments were initially added as mixtures of 12 and those mixtures which induced significant changes in a 13C-HSQC spectrum of the protein were then deconvoluted to find the individual binders.

IL17A [7] = target: T1, IL17A; test: Isothermal titration calorimetry with IL17A dimer; format: binding; details: reverse titration, 50 mM sodium phosphate pH 7.0; read-out: ITC affinity (KD)
Description: Supplemental Figure 7: Isothermal titration calorimetry of Cmpd 10. Theoretical binding of 1 molecule to a IL17A dimer would result in N of 0.5. Observed stoichiometry was 0.7. 200 µM IL17A (dimer) used injected (reverse titration) to 20 µM Cmpd 10 in 50 mM sodium phosphate pH 7.0.

[8] = test system: T4, IL17A-IL17RA interactions; test: SPR competition assay: IL17A +/- inhibitor over immobilized IL17RA; format: binding; details: IL17A +/- inhibitor injected over immobilized IL17RA
T4 construct: IL17A WT (34–155)C129S and Truncated (34–148)C129S was injected; Trx-6His (N, cleaved yes); made in house; host or cells: Escherichia coli Shuffle T7 express (NEB) for IL17A
Description: (§3) To interrogate IL17A—IL17RA binding and the effect of compound binding to IL17A for interaction with IL17RA, Biotinylated Avi tag IL17RA was immobilized using CAP chip. IL17A WT protein with and without compounds was injected over the immobilized IL17RA surface. The surface was regenerated using mixture of 8 M Guanidine Hydrochloride and 1 M Sodium Hydroxide. To profile both IL17A WT and truncated-IL17A binding to IL17RA, Fc tag IL17RA (Sino Biological) was captured on immobilized anti-Fc (Human Fc from Pierce) surface. IL17A WT (34–155)C129S and Truncated (34–148)C129S was injected at flow rate of 80 µL/min for contact time of 180 s and dissociation was monitored for 1200 s. The surface was regenerated with 2 consecutive injections (60 s and 10 s at 60 µL/min) of 10 mM Glycine, pH 1.5.
Supplemental Figure 6: C-terminal binding site compounds can disrupt IL17A binding to its receptor in SPR competition assay. Biotinylated Avi-tagged IL17RA was captured on CAP chip; IL17A +/- inhibitor samples were injected over immobilized IL17RA . Cmpd 1 was used as the positive control. [picture]

IL17RA = target: T5, IL17RA (Homo sapiens, UniProt Q96F46); test: SPR of IL17A WT and truncated IL17A binding to IL17RA; details: IL17A construct binding to IL17RA
T5 construct: purchased Sino Biological
Description: as §3

[9] = disruption of IL17A-IL17RA-Fc complex formation, read-out: IL17A/IL17RA-Fc AlphaLISA IC50

T1 sequence (Q16552 24-155): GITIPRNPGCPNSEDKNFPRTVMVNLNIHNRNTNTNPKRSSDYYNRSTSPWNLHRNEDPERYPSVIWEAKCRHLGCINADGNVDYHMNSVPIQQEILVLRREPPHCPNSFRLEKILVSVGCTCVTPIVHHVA
T2 sequence (Q16552 24-155, one chain of several): as the sequence (Q16552 24-155) above
T3 sequence (Q16552 34-155 C129S): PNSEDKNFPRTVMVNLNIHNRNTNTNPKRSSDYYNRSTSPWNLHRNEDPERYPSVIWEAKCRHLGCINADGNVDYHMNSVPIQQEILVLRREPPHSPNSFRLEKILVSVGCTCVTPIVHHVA

Compound: C/C=C/c1cccc2c(N)n[nH]c12 [Cmpd 4, (E)-7-(prop-1-en-1-yl)-1H-indazol-3-amine]
- Kd (IL17A [1]): > 250 µM

Compound: O=C(COc1ccccc1CNc1cc(C(=O)O)cc(-c2ccnc3ccccc23)c1)NCCOCCOc1ccccc1CNc1cc(C(=O)O)cc(-c2ccnc3ccccc23)c1 [Cmpd 9, 3-((2-(2-(2-(2-(2-(((3-carboxy-5-(quinolin-4-yl)phenyl)amino)methyl)-phenoxy)acetamido)ethoxy)ethoxy)-benzyl)amino)-5-(quinolin-4-yl)benzoic acid]
- IC50 [2]: 5.7 µM
- Competition for IL17A with FP probe (IL17A [3]): full competition
- IC50 [4]: ~57 µM
- Kd (IL17A [1]): 0.21 µM and 0.209 µM
- IC50 (IL17A-IL17RA-Fc complex; [9]): 1.3 µM
- IC50 [5]: > 70 µM

Compound: O=C1CC2(CCCC2)CC(=O)NC(Cc2ccc(NC(=O)C(Cc3ccccc3Cl)NC(=O)Cc3cccc(O)c3)cc2)C(=O)NCCOCCOCCN1 (stereo not drawn) [Cmpd 1, reference compound]
- Concentration needed to block cellular signaling ([2]; positive control in cellular assays): ~ 3 µM
- Kd (IL17A [1]): ~0.004 µM
- Binding efficiency index (BEI) (IL17A [1]; from SPR KD and molecular weight): 11–13
- Potency in biochemical assays (IL17A-IL17RA-Fc complex; positive control in biochemical assays): low nM potency

Compound: c1ccc(CNc2cncc(-c3ccc4[nH]nc(NCCN5CCOCC5)c4c3)c2)cc1 [Cmpd 5, 5-(5-(benzylamino)pyridin-3-yl)-N-(2-morpholinoethyl)-1H-indazol-3-amine]
- Kd (IL17A [6]): 12 µM

Compound: O=C(O)c1cc(NCc2ccccc2OCCOCCOCCOc2ccccc2CNc2cc(C(=O)O)cc(-c3ccnc4ccccc34)c2)cc(-c2ccnc3ccccc23)c1 [Cmpd 10]
- IC50 [2]: 1.3 µM
- IC50 (IL17A [3]; unlabeled compound pre-bound to IL17A before addition of FP probe): 0.107 µM
- Kd (IL17A [7]): 0.044 µM
- Kd (IL17A [1]): 0.043 µM and < 0.1 µM
- IC50 (IL17A-IL17RA-Fc complex; inhibition of IL17A/IL17RA-Fc interactions, read-out: IL17A/IL17RA-Fc IC50): 0.74 µM
- IC50 [5]: > 50 µM

Compound: O=C(COc1ccccc1CNc1cc(C(=O)O)cc(-c2ccnc3ccccc23)c1)NCCNC(=O)COc1ccccc1CNc1cc(C(=O)O)cc(-c2ccnc3ccccc23)c1 [Cmpd 8, 5,5'-((((((ethane-1,2-diylbis(azanediyl))bis(2-oxoethane-2,1-diyl))bis(oxy))-bis(2,1-phenylene))bis(methylene))bis(azanediyl))bis(3-(quinolin-4-yl)benzoic acid)]
- IC50 [2]: 4.7 µM
- Competition for IL17A with FP probe (IL17A [3]): full competition
- IC50 [4]: ~54 µM
- Kd (IL17A [1]): 0.37 µM
- IC50 (IL17A-IL17RA-Fc complex; [9]): 3.6 µM and ~4 µM
- IC50 [5]: ~51 µM
- Disruption of IL17A-IL17RA interactions in SPR-based assay [8]: could block IL17A receptor interactions; also recorded: showed disruption of IL17A-IL17RA interactions

Compound: Clc1ncc(NCc2ccccc2)cc1-c1cccc2ncccc12 [Cmpd 6, N-benzyl-6-chloro-5-(quinolin-5-yl)pyridin-3-amine]
- Kd (IL17A [1]): ~70 µM and 72 µM

Compound: C-terminal deletion: IL17A construct (aa 34–148) lacking the final C-terminal residues (aa 149–155)
- Interaction with IL17RA by SPR (IL17RA): did not productively interact with IL17RA

Source: paper PMC9418147, “Identification and structure-based drug design of cell-active inhibitors of interleukin 17A at a novel C-terminal site” (Scientific Reports, 2022)
